# Values quoted from earlier work in patent US10314836B2, “Quinoline carboxamides for use in the treatment of multiple myeloma” (Active Biotech AB, priority 2014, dated 2019).
# Tested on: castrate resistant prostate cancer (CRPC) metastatic to the bone
# Settings: oral treatment
compound,measurement,value
"COc1cccc2c1c(O)c(C(=O)N(C)c1ccc(C(F)(F)F)cc1)c(=O)n2C [tasquinimod, 4-hydroxy-5-methoxy-N,1-dimethyl-2-oxo-N-[4-(trifluoromethyl)phenyl]-1,2-dihydroquinoline-3-carboxamide]",effect on overall survival,lack a sufficient effect on overall survival
